The kinase profiling compilation of Christmann-Franck et al. (2016)

What was measured:
Assay in all cases: KINOMEscan competition binding
Conditions in all cases: compound 10.0 µM
LIMK2 (human) = LIMK2 (human) (UniProt P53671)
MAPK15 (human) = MAPK15 (human) (UniProt Q8TD08)
DDR2 (human) = DDR2 (human) (UniProt Q16832)
MAPK3 (human) = MAPK3 (human) (UniProt P27361)
TNIK (human) = TNIK (human) (UniProt Q9UKE5)
BMPR1B (human) = BMPR1B (human) (UniProt O00238)
[1] = tested on: FLT3 (human), P36888 [D835Y]
PAK1 (human) = PAK1 (human) (UniProt Q13153)
PRKAA1 (human) = PRKAA1 (human) (UniProt Q13131)
MARK2 (human) = MARK2 (human) (UniProt Q7KZI7)
FER (human) = FER (human) (UniProt P16591)
ZAP70 (human) = ZAP70 (human) (UniProt P43403)
FES (human) = FES (human) (UniProt P07332)
ERN1 (human) = ERN1 (human) (UniProt O75460)
AURKB (human) = AURKB (human) (UniProt Q96GD4)
MAPK1 (human) = MAPK1 (human) (UniProt P28482)
PAK6 (human) = PAK6 (human) (UniProt Q9NQU5)
LATS2 (human) = LATS2 (human) (UniProt Q9NRM7)
STK3 (human) = STK3 (human) (UniProt Q13188)
CHUK (human) = CHUK (human) (UniProt O15111)
NEK9 (human) = NEK9 (human) (UniProt Q8TD19)
CDC42BPA (human) = CDC42BPA (human) (UniProt Q5VT25)
MAP2K1 (human) = MAP2K1 (human) (UniProt Q02750)
AKT2 (human) = AKT2 (human) (UniProt P31751)
ICK (human) = ICK (human) (UniProt Q9UPZ9)
NTRK3 (human) = NTRK3 (human) (UniProt Q16288)
PIK3CD (human) = PIK3CD (human) (UniProt O00329)
NUAK2 (human) = NUAK2 (human) (UniProt Q9H093)
BLK (human) = BLK (human) (UniProt P51451)
EPHA4 (human) = EPHA4 (human) (UniProt P54764)
PRKX (human) = PRKX (human) (UniProt P51817)
NEK6 (human) = NEK6 (human) (UniProt Q9HC98)
MAP2K2 (human) = MAP2K2 (human) (UniProt P36507)
TNK1 (human) = TNK1 (human) (UniProt Q13470)
RPS6KA1 KD1 (human) = RPS6KA1 KD1 (human) (UniProt Q15418)
DYRK1B (human) = DYRK1B (human) (UniProt Q9Y463)
MAP2K6 (human) = MAP2K6 (human) (UniProt P52564)
CAMK1G (human) = CAMK1G (human) (UniProt Q96NX5)
TRPM6 (human) = TRPM6 (human) (UniProt Q9BX84)
SGK3 (human) = SGK3 (human) (UniProt Q96BR1)
CPK1 (P.falciparum) = tested on: CPK1 (P.falciparum)

Sequence of AURKB (human) (Q96GD4 whole entry, looked up): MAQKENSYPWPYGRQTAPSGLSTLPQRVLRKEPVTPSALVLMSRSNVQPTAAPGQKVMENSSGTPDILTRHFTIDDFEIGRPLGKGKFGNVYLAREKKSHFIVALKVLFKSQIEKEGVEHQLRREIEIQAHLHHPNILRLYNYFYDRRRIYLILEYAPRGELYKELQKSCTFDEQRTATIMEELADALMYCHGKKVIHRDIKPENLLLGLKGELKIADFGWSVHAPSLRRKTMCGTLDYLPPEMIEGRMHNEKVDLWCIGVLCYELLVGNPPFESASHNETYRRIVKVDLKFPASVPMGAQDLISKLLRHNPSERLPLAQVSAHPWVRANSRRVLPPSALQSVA
Sequence of MAPK15 (human) (Q8TD08 whole entry, looked up): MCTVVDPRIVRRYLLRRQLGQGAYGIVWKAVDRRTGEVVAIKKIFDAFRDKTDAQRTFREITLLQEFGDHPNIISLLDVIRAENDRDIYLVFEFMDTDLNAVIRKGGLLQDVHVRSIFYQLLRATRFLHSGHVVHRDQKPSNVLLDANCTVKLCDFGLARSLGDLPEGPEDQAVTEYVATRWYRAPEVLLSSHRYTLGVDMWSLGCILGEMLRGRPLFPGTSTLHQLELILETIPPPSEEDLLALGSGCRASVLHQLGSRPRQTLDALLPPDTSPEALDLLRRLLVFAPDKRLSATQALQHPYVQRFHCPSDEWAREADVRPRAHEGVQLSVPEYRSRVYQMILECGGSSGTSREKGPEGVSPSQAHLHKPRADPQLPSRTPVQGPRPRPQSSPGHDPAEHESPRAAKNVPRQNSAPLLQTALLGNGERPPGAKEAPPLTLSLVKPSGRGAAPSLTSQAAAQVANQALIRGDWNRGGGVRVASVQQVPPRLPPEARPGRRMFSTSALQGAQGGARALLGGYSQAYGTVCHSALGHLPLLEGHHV
Sequence of DYRK1B (human) (Q9Y463 whole entry, looked up): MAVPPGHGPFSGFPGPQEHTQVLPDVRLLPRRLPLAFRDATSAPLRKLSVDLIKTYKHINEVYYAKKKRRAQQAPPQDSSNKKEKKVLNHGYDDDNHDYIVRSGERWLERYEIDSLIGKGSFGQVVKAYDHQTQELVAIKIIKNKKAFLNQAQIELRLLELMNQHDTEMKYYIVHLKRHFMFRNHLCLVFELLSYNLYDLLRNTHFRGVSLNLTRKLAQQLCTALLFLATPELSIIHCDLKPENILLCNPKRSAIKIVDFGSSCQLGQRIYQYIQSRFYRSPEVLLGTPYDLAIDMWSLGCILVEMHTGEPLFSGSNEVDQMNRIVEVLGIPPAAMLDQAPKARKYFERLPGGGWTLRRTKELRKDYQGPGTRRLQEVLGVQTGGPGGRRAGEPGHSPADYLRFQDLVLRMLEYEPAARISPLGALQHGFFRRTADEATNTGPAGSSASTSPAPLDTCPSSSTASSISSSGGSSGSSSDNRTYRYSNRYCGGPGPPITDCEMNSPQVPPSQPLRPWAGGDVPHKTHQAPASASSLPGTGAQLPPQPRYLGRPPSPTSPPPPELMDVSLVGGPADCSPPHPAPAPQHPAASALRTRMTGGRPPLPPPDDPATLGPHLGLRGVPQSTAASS
Sequence of RPS6KA1 KD1 (human) (Q15418 whole entry, looked up): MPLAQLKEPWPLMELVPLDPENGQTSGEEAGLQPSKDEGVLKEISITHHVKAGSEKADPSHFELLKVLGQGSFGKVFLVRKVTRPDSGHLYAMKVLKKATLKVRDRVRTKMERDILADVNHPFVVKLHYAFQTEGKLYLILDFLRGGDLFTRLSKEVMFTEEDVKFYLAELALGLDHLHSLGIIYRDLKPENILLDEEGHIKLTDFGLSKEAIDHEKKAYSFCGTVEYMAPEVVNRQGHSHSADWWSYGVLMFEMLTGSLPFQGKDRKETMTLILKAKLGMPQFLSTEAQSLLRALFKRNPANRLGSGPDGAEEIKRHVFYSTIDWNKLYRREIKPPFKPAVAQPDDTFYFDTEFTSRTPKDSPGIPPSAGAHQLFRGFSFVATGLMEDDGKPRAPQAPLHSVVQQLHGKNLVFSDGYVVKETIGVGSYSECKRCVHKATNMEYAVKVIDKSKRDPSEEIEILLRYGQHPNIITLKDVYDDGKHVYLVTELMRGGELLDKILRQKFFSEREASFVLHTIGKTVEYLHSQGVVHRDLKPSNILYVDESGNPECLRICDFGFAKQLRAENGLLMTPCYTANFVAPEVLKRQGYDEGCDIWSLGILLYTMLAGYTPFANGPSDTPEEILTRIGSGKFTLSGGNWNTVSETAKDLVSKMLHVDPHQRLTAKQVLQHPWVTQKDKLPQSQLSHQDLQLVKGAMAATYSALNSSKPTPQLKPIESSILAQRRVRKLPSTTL
Sequence of PRKX (human) (P51817 whole entry, looked up): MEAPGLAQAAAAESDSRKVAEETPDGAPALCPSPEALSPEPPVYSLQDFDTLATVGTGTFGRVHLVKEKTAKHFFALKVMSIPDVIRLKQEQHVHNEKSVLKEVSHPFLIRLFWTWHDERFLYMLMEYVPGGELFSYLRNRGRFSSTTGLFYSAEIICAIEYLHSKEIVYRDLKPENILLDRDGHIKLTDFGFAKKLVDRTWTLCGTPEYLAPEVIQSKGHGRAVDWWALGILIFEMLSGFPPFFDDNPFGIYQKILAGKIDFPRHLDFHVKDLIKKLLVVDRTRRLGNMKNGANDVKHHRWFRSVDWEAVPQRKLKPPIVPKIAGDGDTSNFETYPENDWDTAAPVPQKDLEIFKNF
Sequence of MAPK3 (human) (P27361 whole entry, looked up): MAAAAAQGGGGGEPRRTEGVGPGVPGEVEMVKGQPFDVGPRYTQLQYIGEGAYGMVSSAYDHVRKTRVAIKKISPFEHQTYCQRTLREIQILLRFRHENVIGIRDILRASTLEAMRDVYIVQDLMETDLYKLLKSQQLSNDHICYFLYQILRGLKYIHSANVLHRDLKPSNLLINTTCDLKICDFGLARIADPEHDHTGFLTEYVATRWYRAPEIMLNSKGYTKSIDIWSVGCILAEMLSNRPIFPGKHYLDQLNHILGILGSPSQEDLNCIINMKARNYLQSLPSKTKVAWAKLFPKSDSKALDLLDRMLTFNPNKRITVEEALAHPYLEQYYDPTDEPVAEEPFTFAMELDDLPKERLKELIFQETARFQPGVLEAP
Sequence of ICK (human) (Q9UPZ9 whole entry, looked up): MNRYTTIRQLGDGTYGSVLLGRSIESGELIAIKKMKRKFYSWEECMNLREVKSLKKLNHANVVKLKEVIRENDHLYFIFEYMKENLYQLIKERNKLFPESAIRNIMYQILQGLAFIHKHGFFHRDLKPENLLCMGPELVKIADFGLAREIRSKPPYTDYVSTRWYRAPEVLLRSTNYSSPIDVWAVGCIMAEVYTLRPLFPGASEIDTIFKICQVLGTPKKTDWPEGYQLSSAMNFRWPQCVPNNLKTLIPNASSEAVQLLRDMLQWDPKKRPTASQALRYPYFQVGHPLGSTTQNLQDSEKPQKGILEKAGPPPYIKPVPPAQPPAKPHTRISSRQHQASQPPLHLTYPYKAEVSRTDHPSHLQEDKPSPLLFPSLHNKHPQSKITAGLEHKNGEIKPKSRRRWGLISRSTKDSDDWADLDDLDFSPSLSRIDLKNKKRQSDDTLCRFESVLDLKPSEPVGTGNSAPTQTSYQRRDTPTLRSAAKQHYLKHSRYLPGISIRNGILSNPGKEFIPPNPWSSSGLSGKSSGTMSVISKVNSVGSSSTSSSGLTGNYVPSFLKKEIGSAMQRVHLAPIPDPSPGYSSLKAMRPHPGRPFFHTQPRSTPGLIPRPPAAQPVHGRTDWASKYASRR
Sequence of CAMK1G (human) (Q96NX5 whole entry, looked up): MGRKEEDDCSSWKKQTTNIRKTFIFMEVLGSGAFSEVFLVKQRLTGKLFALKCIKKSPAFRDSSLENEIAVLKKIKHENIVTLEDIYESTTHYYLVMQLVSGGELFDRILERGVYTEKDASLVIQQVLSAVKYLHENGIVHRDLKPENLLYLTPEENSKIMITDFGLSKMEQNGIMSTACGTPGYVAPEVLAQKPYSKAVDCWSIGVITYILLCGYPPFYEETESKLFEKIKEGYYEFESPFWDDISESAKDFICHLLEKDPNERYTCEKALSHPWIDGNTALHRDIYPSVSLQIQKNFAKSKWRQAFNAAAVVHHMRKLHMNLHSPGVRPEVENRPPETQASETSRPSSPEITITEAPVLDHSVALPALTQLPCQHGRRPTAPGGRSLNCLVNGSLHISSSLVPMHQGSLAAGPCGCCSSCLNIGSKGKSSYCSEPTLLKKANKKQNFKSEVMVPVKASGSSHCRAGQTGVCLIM
Sequence of LIMK2 (human) (P53671 whole entry, looked up): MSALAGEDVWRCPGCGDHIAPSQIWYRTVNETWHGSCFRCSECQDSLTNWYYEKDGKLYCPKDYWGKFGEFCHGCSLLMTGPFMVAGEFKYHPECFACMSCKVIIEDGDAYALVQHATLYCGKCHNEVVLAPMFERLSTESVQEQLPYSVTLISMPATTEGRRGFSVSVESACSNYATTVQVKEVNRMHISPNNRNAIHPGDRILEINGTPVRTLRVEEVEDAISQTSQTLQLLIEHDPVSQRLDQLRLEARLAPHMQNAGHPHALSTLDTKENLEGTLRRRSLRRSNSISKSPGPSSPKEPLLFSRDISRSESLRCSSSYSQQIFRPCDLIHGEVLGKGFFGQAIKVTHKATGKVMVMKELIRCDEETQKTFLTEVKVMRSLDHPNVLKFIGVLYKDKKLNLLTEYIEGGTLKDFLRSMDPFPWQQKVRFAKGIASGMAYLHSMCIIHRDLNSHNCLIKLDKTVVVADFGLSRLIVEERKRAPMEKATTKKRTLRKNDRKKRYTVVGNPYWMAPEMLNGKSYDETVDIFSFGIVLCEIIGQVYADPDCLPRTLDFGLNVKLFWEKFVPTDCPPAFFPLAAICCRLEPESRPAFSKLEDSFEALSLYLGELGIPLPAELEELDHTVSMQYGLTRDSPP

| Structure (SMILES) | kinase still bound, per cent of control (LIMK2 (human)) | kinase still bound, per cent of control (MAPK15 (human)) | kinase still bound, per cent of control (DDR2 (human)) | kinase still bound, per cent of control (MAPK3 (human)) | kinase still bound, per cent of control (TNIK (human)) | kinase still bound, per cent of control (BMPR1B (human)) | kinase still bound, per cent of control (PRKAA1 (human)) | kinase still bound, per cent of control (MARK2 (human)) | kinase still bound, per cent of control (FER (human)) | kinase still bound, per cent of control (ZAP70 (human)) | kinase still bound, per cent of control (FES (human)) | kinase still bound, per cent of control (ERN1 (human)) | kinase still bound, per cent of control (AURKB (human)) | kinase still bound, per cent of control (MAPK1 (human)) | kinase still bound, per cent of control (PAK6 (human)) | kinase still bound, per cent of control (LATS2 (human)) | kinase still bound, per cent of control (STK3 (human)) | kinase still bound, per cent of control (CHUK (human)) | kinase still bound, per cent of control (NEK9 (human)) | kinase still bound, per cent of control (CDC42BPA (human)) | further results |
| --- | --- | --- | --- | --- | --- | --- | --- | --- | --- | --- | --- | --- | --- | --- | --- | --- | --- | --- | --- | --- | --- |
| Cc1cn(-c2cc(C(=O)Nc3ccc(C)c(NC(=O)c4ccno4)c3)cc(C(F)(F)F)c2)cn1 | 100% | 100% | 15% | 100% | 100% | 100% | 100% | 100% | 100% | 100% | 100% | 100% | 100% | 100% | 100% | 100% | 100% | 100% | 100% | 100% | kinase still bound, per cent of control [1]: 100%; kinase still bound, per cent of control (PAK1 (human)): 100%; kinase still bound, per cent of control (MAP2K1 (human)): 100%; kinase still bound, per cent of control (AKT2 (human)): 100%; kinase still bound, per cent of control (ICK (human)): 100%; kinase still bound, per cent of control (NTRK3 (human)): 100%; kinase still bound, per cent of control (PIK3CD (human)): 100%; kinase still bound, per cent of control (NUAK2 (human)): 100%; kinase still bound, per cent of control (BLK (human)): 15%; kinase still bound, per cent of control (EPHA4 (human)): 4%; kinase still bound, per cent of control (PRKX (human)): 100%; kinase still bound, per cent of control (NEK6 (human)): 100%; kinase still bound, per cent of control (MAP2K2 (human)): 100%; kinase still bound, per cent of control (TNK1 (human)): 100%; kinase still bound, per cent of control (RPS6KA1 KD1 (human)): 100%; kinase still bound, per cent of control (DYRK1B (human)): 100%; kinase still bound, per cent of control (MAP2K6 (human)): 100%; kinase still bound, per cent of control (CAMK1G (human)): 100% |
| CCN(CCO)CCCOc1ccc2c(Nc3cc(CC(=O)Nc4cccc(F)c4)[nH]n3)ncnc2c1 | 100% | 100% | 27% | 100% | 52% | 77% | 64% | 80% | 100% | 84% | 100% | 67% | 0.2% | 100% | 98% | 52% | 100% | 100% | 100% | 100% | kinase still bound, per cent of control (PAK1 (human)): 100%; kinase still bound, per cent of control (TRPM6 (human)): 100%; kinase still bound, per cent of control (MAP2K1 (human)): 32%; kinase still bound, per cent of control (AKT2 (human)): 90%; kinase still bound, per cent of control (ICK (human)): 74%; kinase still bound, per cent of control (SGK3 (human)): 100%; kinase still bound, per cent of control (NTRK3 (human)): 56%; kinase still bound, per cent of control (PIK3CD (human)): 88%; kinase still bound, per cent of control (NUAK2 (human)): 54%; kinase still bound, per cent of control (BLK (human)): 9.6%; kinase still bound, per cent of control (EPHA4 (human)): 92%; kinase still bound, per cent of control (PRKX (human)): 66%; kinase still bound, per cent of control (CPK1 (P.falciparum)): 63%; kinase still bound, per cent of control (MAP2K2 (human)): 21%; kinase still bound, per cent of control (TNK1 (human)): 86%; kinase still bound, per cent of control (RPS6KA1 KD1 (human)): 83%; kinase still bound, per cent of control (DYRK1B (human)): 86%; kinase still bound, per cent of control (MAP2K6 (human)): 99%; kinase still bound, per cent of control (CAMK1G (human)): 73% |
| CC(=O)c1c(C)c2cnc(Nc3ccc(N4CCNCC4)cn3)nc2n(C2CCCC2)c1=O | 90% | 9.4% | 56% | 64% | 23% | 50% | 22% | 28% | 47% | 73% | 80% | 34% | 48% | 73% | 66% | 42% | 59% | 83% | 76% | 98% | kinase still bound, per cent of control [1]: 1.6%; kinase still bound, per cent of control (TRPM6 (human)): 91%; kinase still bound, per cent of control (MAP2K1 (human)): 20%; kinase still bound, per cent of control (ICK (human)): 38%; kinase still bound, per cent of control (SGK3 (human)): 53%; kinase still bound, per cent of control (NTRK3 (human)): 23%; kinase still bound, per cent of control (PIK3CD (human)): 28%; kinase still bound, per cent of control (NUAK2 (human)): 1%; kinase still bound, per cent of control (EPHA4 (human)): 94%; kinase still bound, per cent of control (PRKX (human)): 90%; kinase still bound, per cent of control (CPK1 (P.falciparum)): 46%; kinase still bound, per cent of control (NEK6 (human)): 69%; kinase still bound, per cent of control (MAP2K2 (human)): 9.1%; kinase still bound, per cent of control (TNK1 (human)): 61%; kinase still bound, per cent of control (RPS6KA1 KD1 (human)): 12%; kinase still bound, per cent of control (DYRK1B (human)): 3.2%; kinase still bound, per cent of control (MAP2K6 (human)): 45%; kinase still bound, per cent of control (CAMK1G (human)): 20% |
